Test results: PubChem BioAssay (NCI)
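Cultured in 96-well plates, cells were exposed to test compound for 48 hours across five concentrations. At the GI50, growth is halved. TGI is the concentration that stops growth completely.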

Experiments:
Assay in all cases: NCI tumour cell line growth inhibition, 48 h
OVCAR-5 ovarian = test system: OVCAR-5 ovarian
T-47D breast = test system: T-47D breast
HCT-15 colon = test system: HCT-15 colon
KM12 colon = test system: KM12 colon
SF-539 CNS = test system: SF-539 CNS
SNB-75 CNS = test system: SNB-75 CNS
HS 578T breast = test system: HS 578T breast
MCF7 breast = test system: MCF7 breast
MALME-3M melanoma = test system: MALME-3M melanoma
UO-31 renal = test system: UO-31 renal

Row | Structure (SMILES) | TGI (OVCAR-5 ovarian) [µM] | TGI (T-47D breast) [µM] | TGI (HCT-15 colon) [µM] | TGI (KM12 colon) [µM] | TGI (SF-539 CNS) [µM] | TGI (SNB-75 CNS) [µM] | TGI (HS 578T breast) [µM] | TGI (MCF7 breast) [µM] | TGI (MALME-3M melanoma) [µM] | TGI (UO-31 renal) [µM] | GI50 (OVCAR-5 ovarian) [µM] | GI50 (T-47D breast) [µM] | GI50 (HCT-15 colon) [µM] | GI50 (KM12 colon) [µM] | GI50 (SF-539 CNS) [µM] | GI50 (SNB-75 CNS) [µM] | GI50 (HS 578T breast) [µM] | GI50 (MCF7 breast) [µM] | GI50 (MALME-3M melanoma) [µM] | GI50 (UO-31 renal) [µM]
1 | CC(=O)Oc1ccc(/C=C/C(=O)O[C@@H](C)[C@H](C)OC(=O)/C=C/c2ccc(OC(C)=O)c(OC(C)=O)c2)cc1OC(C)=O | 58.8 | 61.2 | 33.1 | 78.8 | > 100 | > 100 | > 100 | > 100 | 63.5 | > 100 | – | – | – | – | – | – | – | – | – | –
2 | Oc1ccc(/C=C\c2nnc(/C=C\c3ccc(O)c(O)c3)s2)cc1O | > 86.5 | 5.37 | 16.9 | 18.9 | 13.8 | 15.3 | 28.7 | 12.8 | 17.7 | 7.78 | – | – | – | – | – | – | – | – | – | –
3 | CCN1CC(C)Cn2c(=O)[nH]c3cc(Br)cc1c32 (stereo not given) | > 100 | > 100 | > 100 | > 100 | > 100 | 48.3 | 74.3 | 87.4 | > 100 | > 100 | – | – | – | – | – | – | – | – | – | –
4 | Cn1ccnc1S/C(=C\C=C(C#N)C#N)c1ccc(Cl)cc1 | 7.81 | > 100 | 9.11 | 6.22 | 6.58 | 12.5 | 13.6 | 2.62 | 3.27 | 9.34 | – | – | – | – | – | – | – | – | – | –
5 | Cc1ccc(C)n2c1nc1ccc3ccccc3c12 | > 100 | > 100 | > 100 | > 100 | > 100 | 86 | > 100 | > 100 | > 100 | > 100 | – | – | – | – | – | – | – | – | – | –
6 | N=C(N)SCCON1C(=O)c2ccccc2C1=O | > 100 | > 100 | > 100 | > 100 | > 100 | > 100 | > 100 | > 100 | > 100 | > 100 | – | – | – | – | – | – | – | – | – | –
7 | CC(C)Oc1c(-c2c(OC(C)C)c(=O)c2=O)c(=O)c1=O | > 100 | > 100 | > 100 | > 59.6 | > 100 | > 71.2 | > 67 | > 41.8 | 4 | > 100 | – | – | – | – | – | – | – | – | – | –
8 | CC1=NOC2(C1)/C(=N/O)CCC/C2=N\O (stereo not given) | > 100 | > 100 | > 100 | > 100 | > 100 | > 100 | > 100 | > 100 | > 100 | > 100 | – | – | – | – | – | – | – | – | – | –
9 | CCC1C(=O)C[C@H]2[C@@H]3C(O)CC4=CC(=O)CC[C@]4(C)[C@H]3CC[C@]12C (stereo not given in full) | > 50 | > 50 | > 50 | > 50 | > 50 | > 50 | > 50 | > 50 | > 50 | > 50 | – | – | – | – | – | – | – | – | – | –
10 | CC(C)(CN)CN | > 100 | > 100 | > 100 | > 100 | > 100 | > 100 | > 100 | > 100 | > 100 | > 100 | – | – | – | – | – | – | – | – | – | –
11 | CC(=O)c1ccc(N=Nc2ccc3nonc3c2N)cc1 | > 100 | > 100 | > 100 | > 100 | > 100 | > 100 | > 100 | > 100 | > 100 | > 100 | – | – | – | – | – | – | – | – | – | –
12 | O=C(CSc1nc2ccccc2[nH]1)Nc1ccc(-c2nc3ccccc3s2)c(Cl)c1 | 13.6 | 6.05 | > 100 | 8.1 | 3.25 | > 100 | > 100 | > 100 | 8.92 | 13.7 | 3.63 | 1.71 | 23.8 | 2.67 | 1.7 | 6.58 | 4.5 | 3.58 | 2.59 | 2.16
13 | CSc1c(C(=O)Nc2ccccc2)c(N)nn1-c1ccccc1 | > 100 | > 100 | > 100 | > 100 | > 100 | > 100 | > 100 | > 100 | > 100 | > 100 | – | – | – | – | – | – | – | – | – | –
14 | Cc1ccc(S(=O)(=O)N/C(=C\C=C\c2ccccc2)C(=O)C(C)(C)C)cc1 | > 100 | > 100 | > 100 | > 100 | > 100 | > 100 | > 100 | > 100 | > 100 | > 100 | – | – | – | – | – | – | – | – | – | –
15 | c1ccc(CNc2c3c(nc4ccccc24)CCC3)cc1 | 51.4 | 38.7 | 68.4 | 40.3 | 36.7 | 43.5 | 65.5 | 30.9 | 33.4 | 25 | – | – | – | – | – | – | – | – | – | –
16 | Cc1ccc(F)cc1NC(=O)O/N=C(\Cl)C(C)C | 31.7 | 33.6 | 3.66 | 34.8 | 18.1 | 35.7 | > 65.6 | 20.8 | 16 | 23.2 | – | – | – | – | – | – | – | – | – | –
17 | CCOC(C[Se]CC(OCC)OCC)OCC | > 100 | > 100 | > 100 | > 100 | 62.4 | 38.8 | 45.9 | > 100 | > 100 | > 100 | – | – | – | – | – | – | – | – | – | –
